System: Human SH-SY5Y dopaminergic cells
Assay: 6-OHDA in vitro model of Parkinson's Disease, cell viability (MTT)
Type: cell-based
Details: tryptamine 1 μM 1 h, then 6-OHDA 30 μM 24 h
Source text: Example 9: DMT, DET, DPT and 5-MeO-DMT prevent dopaminergic cell death and inflammation (Only Measured for DMT) caused by the potent and selective dopaminergic toxin 6-OHDA in an in vitro model of Parkinson's Disease. These desired effects are preserved in the presence of the 5-HT2A antagonist Ritanserin (Rit). The Human SH-SY5Y dopaminergic cell line was obtained from Sigma-Aldrich, cultured in 96-well plates and propagated in RPMI medium containing glutamine (1%) and 15% of fetal bovine serum (FBS) plus antibiotic (gentamicin), under humidified 5% CO2 and 95% air. On attaining semiconfluence, separate groups of cells were treated with either: a) one of the four hallucinogenic tryptamines at 1 μM for 1 h, followed by 6-OHDA at 30 μM for 24 hours; or b) Rit at 1 μM for 1h, followed one of the four hallucinogenic tryptamines at 1 μM for an additional hour, at which point 6-OHDA was administered, also at 30 μM, and kept for 24 hours. Vehicle-treated cultures were used as controls. Cell cultures were then processed to assess cell viability (for all four tryptamines) and quantification of nitrite concentration (only performed in the DMT and DMT+Rit tests). Cell viability was measured using the MTT assay (Roche Diagnostic, GmbH), which is based on the ability of viable cells to reduce yellow MTT to blue formazan. After the aforementioned 24 h period in the presence of the different tryptamines or the respective tryptamine+Rit combinations, cells were incubated with MTT (0.5 mg/ml, 4 h) and subsequently solubilized in 10% SDS/0.01 M HCl for 12 h in the dark. The extent of MTT reduction was quantified by absorbance measurement at the 595 nm wavelength, as indicated in the instructions provided by the manufacturer. Nitrite quantification: Due to access to equipment problems at the time the experiments with DET, DPT and 5-MeO-DMT were conducted, the assessment of nitrite levels in the medium could only be done for the DMT experiments. These determinations were carried out as described in Example 8. Results from the cell viability tests are expressed as the percentage of viable dopaminergic cells measured. Results from nitrite determinations are expressed as actual concentrations (μM). Results from both techniques are presented in bar graphs.

SMILES: CN(C)CCc1c[nH]c2ccccc12 [DMT, N,N-dimethyltryptamine]
- reduction in dopaminergic cell death in the presence of Ritanserin (Rit 1 μM 1 h): maintained
- percentage of viable dopaminergic neurons (vs 6-OHDA alone): significant increases

From patent publication US11723894B2, “Combination product for the treatment of neurological and/or psychiatric disorders” (Consejo Superior de Investigaciones Cientificas (CSIC), priority 2017, dated 2023)
